Data from PMC4476580, “Novel Broad Spectrum Inhibitors Targeting the Flavivirus Methyltransferase” (PLoS ONE, 2015).
Where two headings read alike, the source gives them in different places.

Legend:
WNV MTase [1] = target: T1, WNV MTase (West Nile virus, UniProt Q9Q6P4); assay: biochemical
T1 construct: containing the N-terminal 300, 266, 265, and 272 amino acids of NS5 protein, respectively; made in house
T1 sequence (Q9Q6P4 2529-2794 limits assumed): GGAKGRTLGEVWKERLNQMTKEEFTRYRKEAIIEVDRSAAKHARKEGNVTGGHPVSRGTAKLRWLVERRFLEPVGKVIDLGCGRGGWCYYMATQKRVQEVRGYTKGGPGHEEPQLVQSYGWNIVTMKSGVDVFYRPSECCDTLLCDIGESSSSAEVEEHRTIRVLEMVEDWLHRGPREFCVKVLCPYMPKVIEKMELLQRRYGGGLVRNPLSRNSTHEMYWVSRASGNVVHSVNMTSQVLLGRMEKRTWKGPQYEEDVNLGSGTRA

WNV = assay: Viral titer reduction assay; conditions: for Inhibition of the WNV titer: highest concentration tested (200 μM)
WNV MTase [2] = target: T1, WNV MTase; assay: biochemical; format: biochemical
[3] = MTT cell proliferation cytotoxicity assay; format: cell-based; conditions: hamster; BHK-21 cells, MTT, 42 hours
Description: (§1) Cell-based assays were next performed to evaluate the biological activities of the selected compounds. The cytotoxicity of these compounds was first evaluated by using a MTT cell proliferation assay with a BHK-21 cell line (Table 1, fig 5), as we described previously. […] Therefore, these compounds were further investigated for their in vitro antiviral efficacy.
(§2) Cytotoxicity was measured using BHK-21 cells by a MTT cell proliferation assay using the 3-(4,5-dimethylthiazol-2-yl)-2,5-diphenyl tetrazolium bromide method (ATCC), as described previously.

BHK-21 cells = assay: MTT cell proliferation cytotoxicity assay; format: cell-based; conditions: for CC50 values times higher than IC50 values: BHK-21 CC50 versus in vitro IC50; for CC50: BHK-21 cells, MTT, 42 hours
Description: as §1, §2

DENV3 MTase [4] = target: T2, DENV3 MTase (Dengue virus type 3, UniProt Q6YMS4); format: biochemical; conditions: read-out: IC50 2’-O
T2 construct: containing the N-terminal 300, 266, 265, and 272 amino acids of NS5 protein, respectively; made in house

DENV3 MTase [5] = target: T2, DENV3 MTase; format: biochemical; conditions: read-out: IC50 N7
YFV MTase [6] = target: T3, YFV MTase (Yellow fever virus, UniProt P03314); format: biochemical; conditions: read-out: IC50 2’-O
DENV2 MTase [7] = target: T4, DENV2 MTase (Dengue virus type 2, UniProt P14340); format: biochemical; conditions: read-out: IC50 2’-O
T4 construct: containing the N-terminal 300, 266, 265, and 272 amino acids of NS5 protein, respectively; made in house
T4 sequence (P14340 2493-2755 limits assumed): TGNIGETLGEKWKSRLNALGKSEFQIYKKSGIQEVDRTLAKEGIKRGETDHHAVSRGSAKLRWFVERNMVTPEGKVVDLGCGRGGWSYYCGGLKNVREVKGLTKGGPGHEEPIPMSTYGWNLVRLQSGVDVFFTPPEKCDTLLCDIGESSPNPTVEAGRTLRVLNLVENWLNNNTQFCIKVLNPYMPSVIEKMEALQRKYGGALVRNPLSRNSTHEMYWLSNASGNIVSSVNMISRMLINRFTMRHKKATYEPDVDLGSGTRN

DENV2 MTase [8] = target: T4, DENV2 MTase; format: biochemical; conditions: read-out: IC50 N7
YFV MTase [9] = target: T3, YFV MTase; format: biochemical; conditions: read-out: IC50 N7

T3 sequence (P03314 2507-2771 limits assumed): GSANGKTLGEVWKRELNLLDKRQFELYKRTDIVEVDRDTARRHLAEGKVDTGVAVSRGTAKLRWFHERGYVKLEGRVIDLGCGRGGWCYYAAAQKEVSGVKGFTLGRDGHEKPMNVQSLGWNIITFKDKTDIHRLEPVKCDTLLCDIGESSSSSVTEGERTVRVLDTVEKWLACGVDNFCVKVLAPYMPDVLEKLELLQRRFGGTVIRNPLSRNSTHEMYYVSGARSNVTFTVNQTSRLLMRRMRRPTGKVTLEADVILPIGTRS
T2 sequence (Q6YMS4 2492-2753): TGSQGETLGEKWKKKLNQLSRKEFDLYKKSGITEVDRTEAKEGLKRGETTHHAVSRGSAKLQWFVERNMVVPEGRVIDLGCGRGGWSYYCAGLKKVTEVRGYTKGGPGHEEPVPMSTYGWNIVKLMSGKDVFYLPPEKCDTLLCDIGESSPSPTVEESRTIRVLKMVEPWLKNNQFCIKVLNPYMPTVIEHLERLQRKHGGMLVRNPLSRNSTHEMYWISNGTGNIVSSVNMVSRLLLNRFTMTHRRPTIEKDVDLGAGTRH

Structure (SMILES): O=C1CN2CCN(CC2)CC(=O)Nc2ccc(cc2)S(=O)(=O)c2ccc(cc2)NC(=O)CN2CCN(CC2)CC(=O)Nc2ccc(cc2)S(=O)(=O)c2ccc(cc2)N1 [NSC 36806]
- IC50 (WNV MTase [1]): > 300 µM
- EC50 (WNV; West Nile virus, 42 h): > 200 µM
- Inhibition of the WNV titer (WNV): did not inhibit the WNV titer
- IC50 (WNV MTase [2]; IC50 N7 No CHAPS): 39 µM
- IC50 (WNV MTase [2]; IC50 N7 with CHAPS): 35.5 µM
- CC50 at 42 h [3]: 362 µM
- CC50 values times higher than IC50 values (BHK-21 cells): ~10

Structure (SMILES): O=C1c2cc([N+](=O)[O-])ccc2-c2ccc3c4ccc5c6c(ccc(c7ccc1c2c73)c64)C(=O)c1cc([N+](=O)[O-])ccc1-5 [NSC 51535]
- IC50 (WNV MTase [1]; read-out: IC50 2’-O with CHAPS): 5.6 µM
- IC50 (WNV MTase [2]; read-out: IC50 N7 No CHAPS): 3.9 µM
- CC50 at 42 h [3]: 5.7 µM

Structure (SMILES): O=C1c2ccccc2C(=O)c2c1ccc(N1C(=O)c3ccccc3C1=O)c2-c1c(N2C(=O)c3ccccc3C2=O)ccc2c1C(=O)c1ccccc1C2=O [NSC 115448]
- IC50 (WNV MTase [1]): 16.6 µM
- IC50 (WNV MTase [2]; IC50 N7 No CHAPS): 15.7 µM
- IC50 (WNV MTase [2]; IC50 N7 with CHAPS): 225 µM
- CC50 at 42 h [3]: 155 µM

Structure (SMILES): O=c1c2ccccc2c2ccccc2c(=O)n1-c1cc2c3ccccc3ccc2c2ccccc12 [NSC 128609]
- IC50 (WNV MTase [1]): 101 µM
- IC50 (WNV MTase [2]; IC50 N7 No CHAPS): 40 µM
- CC50 at 42 h [3]: 192 µM

Structure (SMILES): COc1ccc2cc1Oc1ccc(cc1)CC1c3c(cc(OC)c4c3Oc3cc5c(cc3O4)CCNC5C2)CCN1C (stereo not drawn) [NSC 181486]
- IC50 (WNV MTase [1]): > 300 µM
- IC50 (WNV MTase [2]; IC50 N7 No CHAPS): 25.9 µM
- IC50 (WNV MTase [2]; IC50 N7 with CHAPS): 34.7 µM
- CC50 at 42 h [3]: 4.8 µM

Structure (SMILES): Cc1ccc(NC(=O)c2cc3ccccc3cc2O)c(C)c1.Cc1ccc(NC(=O)c2cc3ccccc3cc2O)c(C)c1.[Ni] [NSC 306698]
- IC50 (WNV MTase [1]; read-out: IC50 2’-O with CHAPS): 49.1 µM
- IC50 (WNV MTase [2]; read-out: IC50 N7 No CHAPS): 45 µM
- CC50 (BHK-21 cells): 32 µM

Structure (SMILES): Cc1nn(-c2ccc(S(=O)(=O)[O-])cc2)c([O-])c1N=Nc1ccc(-c2ccc(N=Nc3ccc4c(S(=O)(=O)[O-])cc(S(=O)(=O)[O-])c(N)c4c3[O-])c([O-])c2)cc1[O-].[Cu+2].[Cu+2].[H+].[H+].[H+] [NSC 306711]
- IC50 (DENV3 MTase [4]): 4.7 µM
- IC50 (WNV MTase [1]; read-out: IC50 2’-O with CHAPS): 4.3 µM
- IC50 (DENV3 MTase [5]): 36 µM
- EC50 (WNV; BHK cells infected with WNV, MOI 0.1, 42 hours post-infection, plaque assay on Vero cells): 1 µM
- IC50 (YFV MTase [6]): 1.1 µM
- IC50 (DENV2 MTase [7]): 6.9 µM
- IC50 (DENV2 MTase [8]): 5.3 µM
- IC50 (WNV MTase [2]; read-out: IC50 N7 No CHAPS): 0.87 µM
- IC50 (WNV MTase [2]; read-out: IC50 N7 with CHAPS): 2.3 µM
- IC50 (YFV MTase [9]): 1.2 µM
- CC50 values times higher than IC50 values (BHK-21 cells): ~10
- CC50 (BHK-21 cells): 332 µM

Structure (SMILES): CN1CCN(c2ccc3[nH]c(-c4ccc5[nH]c(-c6ccc(O)cc6)nc5c4)nc3c2)CC1 [NSC 322921]
- IC50 (WNV MTase [1]): > 300 µM
- EC50 (WNV; West Nile virus, 42 h): > 200 µM
- Inhibition of the WNV titer (WNV): did not inhibit the WNV titer
- IC50 (WNV MTase [2]; IC50 N7 No CHAPS): 29.9 µM
- IC50 (WNV MTase [2]; IC50 N7 with CHAPS): 26.5 µM
- CC50 at 42 h [3]: > 500 µM
- CC50 values times higher than IC50 values (BHK-21 cells): ~10

Structure (SMILES): Ic1ccc2c(c1)N(c1ccccc1)c1cc(Nc3ccc4c(c3)N(c3ccccc3)c3cc(I)ccc3N4)ccc1N2 [NSC 402959]
- IC50 (WNV MTase [1]; read-out: IC50 2’-O with CHAPS): 6.2 µM
- IC50 (WNV MTase [2]; read-out: IC50 N7 No CHAPS): 9.8 µM
- IC50 (WNV MTase [2]; read-out: IC50 N7 with CHAPS): 30.8 µM
- CC50 at 42 h [3]: 14.6 µM

Structure (SMILES): CC1=C(Nc2c(C)cc(O)cc2O)C(=O)C=c2oc3c(c21)C(C)=C(Nc1c(C)cc(O)cc1O)C(=O)C=3 [NSC 610930]
- IC50 (WNV MTase [1]): 5.6 µM
- EC50 (WNV; West Nile virus, 42 h): 12.6 µM
- IC50 (WNV MTase [2]; IC50 N7 No CHAPS): 4.2 µM
- IC50 (WNV MTase [2]; IC50 N7 with CHAPS): 18.2 µM
- CC50 at 42 h [3]: 117 µM
- CC50 values times higher than IC50 values (BHK-21 cells): ~10

Structure (SMILES): Nc1ncnc2c1ncn2[C@@H]1O[C@H](C[C@@H](N)CC[C@H](N)C(=O)O)[C@@H](O)[C@H]1O [SIN, sinefungin, reference compound]
- Inhibition of the N7 activity of the WNV MTase (WNV MTase [2]): ~ 80%
